Laboratory results taken from patent US20230279341A1, “NOVEL FAECALIBACTERIUM PRAUSNITZII STRAIN EB-FPDK9 AND USE THEREOF” (ENTEROBIOME INC., priority 2020, published 2023).
Values after ≈ are worked out from the molar mass of the structure shown.

How the values were obtained:
Type in all cases: cell-based
[1] = system: Faecalibacterium prausnitzii EB-FPDK9 strain; assay: MIC, liquid medium microdilution method (CLSI), EB-FPDK9 strain; settings: for Resistance or susceptibility of the EB-FPDK9 strain to the antimicrobial agent, in words: text summary of Table 4
[2] = system: Faecalibacterium prausnitzii DSM 17677^T; assay: MIC, liquid medium microdilution method (CLSI), standard strain
[3] = system: Bacteroides thetiotaomicron ATCC 29741; assay: MIC, liquid medium microdilution method (CLSI), QC strain

**Q.** How did the “Susceptibility class (S/I/R), EB-FPDK9” value ([1]; CHL breakpoints) turn out when `O=C(N[C@H](CO)[C@H](O)c1ccc([N+](=O)[O-])cc1)C(Cl)Cl` [CHL, chloramphenicol] was run?
**A.** Its value is “R (≥32)”.

**Q.** And the “Resistance or susceptibility of the EB-FPDK9 strain to the antimicrobial agent, in words” value (“Resistance or susceptibility” below) [1]?
**A.** Its value is “resistance”.

**Q.** And the “Susceptibility class (S/I/R), DSM 17677^T” value ([2]; CHL breakpoints)?
**A.** The value was “R (≥32)”.

**Q.** With `CCC[C@@H]1C[C@@H](C(=O)N[C@@H]([C@H]2O[C@H](SC)[C@H](O)[C@@H](O)[C@H]2O)[C@H](C)Cl)N(C)C1` [CLI, clindamycin] as the molecule, how does the “Susceptibility class (S/I/R), EB-FPDK9” value ([1]; CLI breakpoints) read?
**A.** Its value is “S (≤2)”.

**Q.** What about the “Susceptibility class (S/I/R), DSM 17677^T” value ([2]; CLI breakpoints) of the same molecule?
**A.** Its value is “S (≤2)”.

**Q.** How did the “Susceptibility class (S/I/R), EB-FPDK9” value ([1]; CTZ breakpoints) turn out when `CO/N=C(\C(=O)N[C@@H]1C(=O)N2C(C(=O)O)=CCS[C@H]12)c1csc(N)n1` [CTZ, ceftizoxime] was run?
**A.** The value was “R (≥128)”.

**Q.** What about the “Resistance or susceptibility” value [1] of the same molecule?
**A.** Its value is “resistance”.

**Q.** And the “Susceptibility class (S/I/R), DSM 17677^T” value ([2]; CTZ breakpoints)?
**A.** The value was “I (64)”.

**Q.** `C[C@@H](O)[C@H]1C(=O)N2C(C(=O)O)=C(S[C@@H]3CN[C@H](C(=O)N(C)C)C3)[C@H](C)[C@H]12` [MEM, meropenem] was tested. Which “Susceptibility class (S/I/R), EB-FPDK9” value ([1]; MEM breakpoints) did it give?
**A.** Its value is “R (≥16)”.

**Q.** And the “Resistance or susceptibility” value [1]?
**A.** The value was “resistance”.

**Q.** And the “Susceptibility class (S/I/R), DSM 17677^T” value ([2]; MEM breakpoints)?
**A.** The value was “R (≥16)”.

**Q.** What about the MIC ([3]; Bacteroides, ATCC29741, read-out: MIC, QC ATCC 29741) of the same molecule?
**A.** Its MIC is 0.5 µg/mL (≈ 1.3 µM).

**Q.** Which results are given for `Cc1ncc([N+](=O)[O-])n1CCO` [MTZ, metronidazole]?
**A.** Susceptibility class (S/I/R), EB-FPDK9 ([1]; MTZ breakpoints): S (≤8); Resistance or susceptibility of the EB-FPDK9 strain to the antimicrobial agent, in words [1]: susceptibility; Susceptibility class (S/I/R), DSM 17677^T ([2]; MTZ breakpoints): S (≤8)

**Q.** Which “Susceptibility class (S/I/R), EB-FPDK9” value ([1]; MXF breakpoints) does the source give for `COc1c(N2C[C@@H]3CCCN[C@@H]3C2)c(F)cc2c(=O)c(C(=O)O)cn(C3CC3)c12` [MXF, moxifloxacin] here?
**A.** The value was “R (≥8)”.

**Q.** And the “Susceptibility class (S/I/R), DSM 17677^T” value ([2]; MXF breakpoints)?
**A.** Its value is “R (≥8)”.

**Q.** How did the “MIC, test strain EB-FPDK9” value ([1]; F. prausnitzii EB-FPDK9) turn out when Piperacillin-tazobactam [PTZ] was run?
**A.** The value was 32/4.

**Q.** And the “Susceptibility class (S/I/R), EB-FPDK9” value ([1]; PTZ breakpoints)?
**A.** The value was “S (≤32/4)”.

**Q.** What about the “Resistance or susceptibility” value [1] of the same molecule?
**A.** Its value is “susceptibility”.

**Q.** What about the “MIC, test strain DSM 17677^T” value ([2]; F. prausnitzii DSM 17677^T) of the same molecule?
**A.** Its value is 256/4.

**Q.** And the “Susceptibility class (S/I/R), DSM 17677^T” value ([2]; PTZ breakpoints)?
**A.** The value was “R (≥128/4)”.

**Q.** What about the “MIC, QC ATCC 29741” value ([3]; Bacteroides thetiotaomicron ATCC 29741) of the same molecule?
**A.** The value was 8/4.
